The source of these data is patent US20100003191A1, “AURONE DERIVATIVE-CONTAINING COMPOSITION FOR DIAGNOSIS” (NAGASAKI UNIVERSITY, priority 2006, published 2010).

One data set concerns the target T1, Aβ(1-42) aggregate (Homo sapiens, UniProt P05067).
T1 construct: Amyloid (3 protein (Human, 1-42) [TFA form] was purchased from Peptide Institute, Inc); purchased Peptide Institute, Inc
Briefly: In vitro binding experiment of [125I]-labeled aurone derivatives using Aβ(1-42) aggregates. The settings on record: [125I]-labeled compounds, Ab(1-42) aggregates; for intensity of the binding property to Ab aggregates (order): radioactivity remaining on filter, FIG. 4. As for the experimental part: Aβ aggregates were prepared by dissolving in a buffer containing 10 mM sodium phosphate and 1 mM EDTA (pH 7.4) at a concentration of 0.5 mg/mL and incubating at 37° C. for 42 h. The binding experiment was performed using 12×75 mm borosilicate glass tubes. [^125I]IMPY used for comparison was prepared according to the method described previously (Zhuang Z P, Kung M P, Wilson A, Lee C W, Plossi K, Hou C, Holzman D M, Kung H F. Structure-activity relationship of imidazo[1,2-a]pyridines as ligands for detecting β-amyloid plaques in the brain. J. Med. Chem. 2003, 46(2): 237-43). 900 μL of 10% ethanol solution, 50 μL of [^125I]-labeled aurone derivative with various concentrations (in 10% aqueous ethanol) or 50 μL of [^125I]IMPY, and 50 μL (29 nM) of an Aβ(1-42) aggregate solution were mixed, and the mixture was allowed to stand at room temperature for 3 h. Aβ3 aggregate-bound aurone derivative and nonbound aurone derivative were separated with a Brandel M-24R cell harvester using Whatman GF/B filters. The radioactivities of substances remaining on the filter used for filtration were measured with a γ counter.
FIGS. 4 and 5 show the results of experiments in which aurone derivatives were reacted in the presence and absence of Ab aggregates; the reaction mixture was filtered with a cell harvester; and the remaining radioactivity on the filter was measured. […] The intensity of the binding property increased in the following order: [^125I] Compound 7>[^125I] Compound 12=[^125I] IMPY>[^125I] Compound 14=[^125I] Compound 17>[^125I] Compound 20 (FIG. 4). The binding property to Ab aggregates of those compounds with —NH2, OMe- and OH group in their side chains are lower than the binding property of [^125] IMPY. On the other hand, those compounds with NHMe- and NMe2 group show equal or higher binding property to Ab aggregates compared to the binding property of [^125I] IMPY. […] Among all, the binding of Compound 7 to Ab aggregates was equal or more than the binding of [^125I] IMPY which is clinically tested at present. Therefore, it has become clear that this compound satisfies a critical requirement as an imaging probe for amyloid β.

Data set [1] in a line: In vivo radioactivity distribution experiment of 125I-labeled aurone derivatives in normal mice (Example 2, Table 15). The settings on record: tail vein.
Protocol: Animals were decapitated at 2, 10, 30 or 60 min after the injection, and the blood was collected. Then, major organs were removed, and weights and radioactivities thereof were measured.
In vivo radioactivity distribution experiments of ^125I-labeled aurone derivatives were performed using 5-week-old normal mice.
Data set [2] can be described thus: In vivo radioactivity biodistribution experiment in normal mice (Example 1, Table 13). More on the design: species or system ddY mice. As for the experimental part:
^125I-labeled compounds were diluted with 10% ethanol-containing physiological saline. […] After their blood was collected, organs were removed, and the weights and radioactivities thereof were measured.
When any of the aurone derivatives was used, sufficient radioactivity to perform imaging of intracerebral amyloid migrated to the brain from the early stage of injection (1.7-4.6% ID/g). […] It was also shown that, in any of the aurone derivatives, in vivo radioactivity behavior is discharged mainly from the liver to the bile duct and the intestinal tract.

A value given as a limit tells only on which side of the number the result lay.

T1 sequence (P05067 672-713 limits assumed): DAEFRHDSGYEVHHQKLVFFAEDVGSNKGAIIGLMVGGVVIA

Turning to `CN(C)c1ccc(/C=C2\Oc3ccc(I)cc3C2=O)cc1` [Compound 7, 5-iodo-4′-dimethylaminoaurone], at Aβ(1-42) aggregate, the “binding property to Ab aggregates compared with [125I]IMPY” value was “equal or more than the binding of [^125I] IMPY” and the “intensity of the binding property to Ab aggregates (order)” value (from here on “intensity of the binding property”) is “[^125I] Compound 7>[^125I] Compound 12”.
As for `CNc1ccc(/C=C2\Oc3ccc(I)cc3C2=O)cc1` [Compound 12, 5-iodo-4′-methylaminoaurone], the “intensity of the binding property” value at Aβ(1-42) aggregate is “[^125I] Compound 12=[^125I] IMPY”.
Still for that read-out and setting: under `Nc1ccc(/C=C2\Oc3ccc(I)cc3C2=O)cc1` [Compound 14, 5-iodo-4′-aminoauron] stands “[^125I] Compound 14=[^125I] Compound 17”.
As for `COc1ccc(/C=C2\Oc3ccc(I)cc3C2=O)cc1` [Compound 17, 5-iodo-4′-methoxyaurone], the “intensity of the binding property” value at Aβ(1-42) aggregate was “[^125I] Compound 17>[^125I] Compound 20”.
For `O=C1/C(=C/c2ccc(O)cc2)Oc2ccc(I)cc21` [Compound 20, 5-iodo-4′-hydroxyaurone], the “intensity of the binding property” value on Aβ(1-42) aggregate is “>[^125I] Compound 20”.
Turning to `O=C1/C(=C/c2ccc(OCCO)cc2)Oc2ccc([125I])cc21` [[125I]26], the “Radioactivity distribution, Blood, Mean” value in data set [1] (2 min after injection) is 4.97 % ID/g; in data set [1] (10 min after injection), 3.88 % ID/g; in data set [1] (30 min after injection) it was 2.38 % ID/g; in data set [1] (60 min after injection), 1.24 % ID/g. The “Radioactivity distribution, Brain, Mean” value in data set [1] (2 min after injection) is 4.51 % ID/g; in data set [1] (10 min after injection), 1.49 % ID/g; in data set [1] (30 min after injection), 0.24 % ID/g; in data set [1] (60 min after injection) it was 0.09 % ID/g.
Take `O=C1/C(=C/c2ccc(OCCOCCO)cc2)Oc2ccc([125I])cc21` [[125I]27]: the “Radioactivity distribution, Blood, Mean” value in data set [1] (2 min after injection) is recorded as 3.61 % ID/g; in data set [1] (10 min after injection), 5.18 % ID/g; in data set [1] (30 min after injection) it was 1.11 % ID/g; in data set [1] (60 min after injection), 0.68 % ID/g. For the same compound, the “Radioactivity distribution, Brain, Mean” value in data set [1] (2 min after injection) is 3.69 % ID/g; in data set [1] (10 min after injection) it was 1.53 % ID/g; in data set [1] (30 min after injection), 0.38 % ID/g; in data set [1] (60 min after injection), 0.16 % ID/g.
On to `O=C1/C(=C/c2ccc(OCCOCCOCCO)cc2)Oc2ccc([125I])cc21` [[125I]28], for which the “Radioactivity distribution, Blood, Mean” value is reported as 4.75 % ID/g in data set [1] (2 min after injection), 2.70 % ID/g in data set [1] (10 min after injection), 1.13 % ID/g in data set [1] (30 min after injection) and 0.55 % ID/g in data set [1] (60 min after injection). For the same compound, the “Radioactivity distribution, Brain, Mean” value in data set [1] (2 min after injection) was 2.81 % ID/g; in data set [1] (10 min after injection), 0.84 % ID/g; in data set [1] (30 min after injection) it was 0.18 % ID/g; in data set [1] (60 min after injection), 0.08 % ID/g.
In the case of `O=C1/C(=C/c2ccc(O)cc2)Oc2ccc([125I])cc21` [[^125I]20], in data set [2] (2 min after injection), the “Biodistribution of radioactivity, Blood” value is reported as 3.14 (0.73) % injected dose per gram; the “Biodistribution of radioactivity, Brain” value was 3.07 (0.39) % injected dose per gram; the “Biodistribution of radioactivity, Heart” value is 6.23 (0.63) % injected dose per gram; the “Biodistribution of radioactivity, Intestine” value (“Biodistribution … Intestine” below) is recorded as 2.11 (0.75) % injected dose per gram. In data set [2] (2 min after injection), the “Biodistribution of radioactivity, Kidney” value is 11.08 (2.96) % injected dose per gram; the “Biodistribution of radioactivity, Liver” value is listed as 6.05 (1.49) % injected dose per gram; the “Biodistribution of radioactivity, Lung” value is 6.69 (0.86) % injected dose per gram; the “Biodistribution of radioactivity, Pancreas” value (from here on “Biodistribution … Pancreas”) is 5.28 (0.99) % injected dose per gram. Also, in data set [2] (2 min after injection), the “Biodistribution of radioactivity, Spleen” value is listed as 2.18 (0.48) % injected dose per gram and the “Biodistribution of radioactivity, Stomach” value (from here on “Biodistribution … Stomach”) is reported as 1.30 (0.43) % injected dose per organ. Besides, in data set [2] (10 min after injection), the “Biodistribution of radioactivity, Blood” value is 2.77 (0.28) % injected dose per gram; the “Biodistribution of radioactivity, Brain” value is listed as 1.48 (0.19) % injected dose per gram; the “Biodistribution of radioactivity, Heart” value is reported as 2.57 (0.41) % injected dose per gram; the “Biodistribution … Intestine” value is reported as 6.12 (0.83) % injected dose per gram. In data set [2] (10 min after injection), the “Biodistribution of radioactivity, Kidney” value is given as 11.22 (2.26) % injected dose per gram; the “Biodistribution of radioactivity, Liver” value is 6.63 (1.08) % injected dose per gram; the “Biodistribution of radioactivity, Lung” value is 3.14 (0.23) % injected dose per gram; the “Biodistribution … Pancreas” value was 2.65 (0.64) % injected dose per gram. In data set [2] (10 min after injection), the “Biodistribution of radioactivity, Spleen” value was 1.36 (0.15) % injected dose per gram and the “Biodistribution … Stomach” value is 2.53 (0.97) % injected dose per organ. Also, in data set [2] (30 min after injection), the “Biodistribution of radioactivity, Blood” value is listed as 1.75 (0.38) % injected dose per gram; the “Biodistribution of radioactivity, Brain” value is given as 0.37 (0.07) % injected dose per gram; the “Biodistribution of radioactivity, Heart” value is 0.98 (0.14) % injected dose per gram; the “Biodistribution … Intestine” value is given as 12.67 (2.13) % injected dose per gram. In data set [2] (30 min after injection), the “Biodistribution of radioactivity, Kidney” value is 5.82 (1.11) % injected dose per gram; the “Biodistribution of radioactivity, Liver” value is 4.23 (0.63) % injected dose per gram; the “Biodistribution of radioactivity, Lung” value is given as 1.62 (0.22) % injected dose per gram; the “Biodistribution … Pancreas” value was 0.92 (0.19) % injected dose per gram. In addition, in data set [2] (30 min after injection), the “Biodistribution of radioactivity, Spleen” value is 0.69 (0.14) % injected dose per gram and the “Biodistribution … Stomach” value was 2.82 (1.88) % injected dose per organ. In addition, in data set [2] (60 min after injection), the “Biodistribution of radioactivity, Blood” value was 0.87 (0.28) % injected dose per gram; the “Biodistribution of radioactivity, Brain” value is on record as 0.14 (0.12) % injected dose per gram; the “Biodistribution of radioactivity, Heart” value was 0.42 (0.09) % injected dose per gram; the “Biodistribution … Intestine” value is 14.87 (5.42) % injected dose per gram. In addition, in data set [2] (60 min after injection), the “Biodistribution of radioactivity, Kidney” value was 2.43 (1.04) % injected dose per gram; the “Biodistribution of radioactivity, Liver” value was 4.45 (3.14) % injected dose per gram; the “Biodistribution of radioactivity, Lung” value is reported as 0.80 (0.19) % injected dose per gram; the “Biodistribution … Pancreas” value is recorded as 0.36 (0.09) % injected dose per gram. Further, in data set [2] (60 min after injection), the “Biodistribution of radioactivity, Spleen” value is given as 0.42 (0.02) % injected dose per gram and the “Biodistribution … Stomach” value is listed as 2.26 (0.88) % injected dose per organ.
Regarding `CN(C)c1ccc(-c2cn3cc([125I])ccc3n2)cc1` [[^125I] IMPY, reference compound], on Aβ(1-42) aggregate, the “intensity of the binding property” value is “[^125I] IMPY>[^125I] Compound 14”.
